Experimental data reported in patent US10815233B2, “Dihydroindolizinone derivative” (ONO PHARMACEUTICAL CO., LTD., priority 2014, dated 2020).

How the values were obtained:
[1] = target: T1, human blood coagulation factor XIa (Homo sapiens, UniProt P03951); assay: Inhibitory activity on human blood coagulation factor XIa (chromogenic substrate S-2366); format: biochemical; settings: chromogenic substrate S-2366, 37° C.; read-out: FXIa inhibitory activity IC50
T1 construct: human blood coagulation factor XIa (Haematologic Technologies Inc.); purchased Haematologic Technologies Inc
Procedure: Inhibitory activities of the compound of the present invention on human blood coagulation factor XIa, factor VIIa, factor IXa, factor Xa, factor XIIa, plasma kallikrein and thrombin were evaluated. A chromogenic substrate solution was added to each of enzyme solutions, the absorbance at 405 nm was measured continuously at 37° C. for 5 minutes at intervals of 15 seconds, and the decomposition rate of each of substrates (mOD/min) was calculated. The half maximal (50%) inhibitory concentration (IC50) of the compound of the present invention on each of the enzymes was calculated by linear regression by using least-squares method from the concentration of the compound of the present invention which was converted in terms of natural logarithm and the rate of enzyme inhibition calculated according to the following equation.
The rate of enzyme inhibition (%) of the compound of the present invention was calculated by using the following equation: Rate of enzyme inhibition (%)=100×{(Cont(e)−BL(e))−(Comp(e)−BL(e))/(Cont(e)−BL(e))}
Cont (e): Decomposition rate of substrate (mOD/min) when enzyme solution and substrate solution were added to physiological saline containing 5% dimethyl sulfoxide
Comp (e): Decomposition rate of substrate (mOD/min) when enzyme solution and substrate solution were added to physiological saline containing 5% dimethyl sulfoxide and the compound of the present invention
The inhibitory activity on human blood coagulation factor XIa (Haematologic Technologies Inc.) was measured by using the enzyme solution adjusted to 0.1 U/mL by a buffer solution containing 300 mM of NaCl, 10 mM of KCl, 2 mg/mL of PEG 6000 and 100 mM of HEPES-NaOH (pH 7.4) as well as S-2366 (pyroglu-Pro-Arg-pNA, CHROMOGENIX) adjusted to 1 mM by distilled water.

[2] = Pharmacokinetic (PK) tests in rats; format: in vivo
Procedure: The compound of the present invention was administered to fasted male Crj:CD(SD) rats by intravenous injection as a single intravenous dose of 0.1 mg/kg (vehicle: 20% HP-β-CD solution) and by forced oral dosage as a dose of 1 mg/kg per os (vehicle: 0.5% methylcellulose solution). Blood samples were collected from cervical vein into heparinized syringes at 0.08, 0.25, 0.5, 1, 3 or 7 hours after administration by intravenous injection or 0.08, 0.25, 0.5, 1, 2, 4, 6, 8 or 24 hours after oral administration. Plasma was obtained by centrifugation, and plasma was stored at −20° C. until measurement of plasma concentration.
In order to measure the plasma concentration of the compound of the present invention, the plasma sample was subjected to deproteinization by using acetonitrile, was filtrated by using a filter, and thereafter, was diluted with purified water, and then was analyzed by LC/MS/MS. A column for analysis (Shim-pack XR-ODSII, 2.0 mm×75 mm, 2.2 μm) and mobile phases (0.1% formic acid in water and 0.1% formic acid in acetonitrile, flow rate: 0.5 mL/min) were used. The system was used by detection of cations in the Multiple Reaction Monitoring (MRM) mode.
The area under the blood concentration versus time curve (AUC) and the bioavailability (BA) of the compound of the present invention were calculated. In addition, as indices of the maintaining time of the anticoagulation activity in the case of oral administration, AUC/APTT×2, which is obtained by dividing AUC by APTT×2, and C8h/APTT×2, which is obtained by dividing C8h (the plasma concentration at 8 hours after administration) by APTT×2, were calculated.
In addition, the period of time when the compound concentration in plasma of the compound of the present invention exceeded APTT×2 (the APTT×2 maintaining time) was calculated from the change in the compound concentration in plasma in the case when the compound of the present invention was orally administered at a dose of 1 mg/kg. The longer the APTT×2 maintaining time is, the longer the period of time is when the anticoagulation activity is maintained after oral administration.

standard human plasma = assay: Activated partial thromboplastin time (APTT) in standard human plasma; format: biochemical; settings: concentration required for doubling the coagulation time vs vehicle (1% DMSO)
Procedure: Activated partial thromboplastin time (APTT) and prothrombin time (PT) were measured by using a fully automatic device for measuring blood coagulation (CA-1500, Sysmex Corporation). On APTT or PT measurement, standard human plasma for the blood coagulation tests (Siemens Healthcare Diagnostics GmbH) was mixed with a diluted solution of the compound of the present invention, and thereafter, APTT reagent (Siemens Healthcare Diagnostics GmbH) and 0.02 M of calcium chloride or PT reagent (Siemens Healthcare Diagnostics GmbH) were automatically added to the mixture in order to initiate clot formation. The anticoagulation activity (APTT×2 or PT×2) of the compound of the present invention was expressed as a concentration required for doubling the coagulation time in the vehicle (1% DMSO) group. APTT×2 or PT×2 was determined by plotting the concentration of the compound of the present invention against a twofold increase in the coagulation time.

T1 sequence (P03951 388-625 limits assumed): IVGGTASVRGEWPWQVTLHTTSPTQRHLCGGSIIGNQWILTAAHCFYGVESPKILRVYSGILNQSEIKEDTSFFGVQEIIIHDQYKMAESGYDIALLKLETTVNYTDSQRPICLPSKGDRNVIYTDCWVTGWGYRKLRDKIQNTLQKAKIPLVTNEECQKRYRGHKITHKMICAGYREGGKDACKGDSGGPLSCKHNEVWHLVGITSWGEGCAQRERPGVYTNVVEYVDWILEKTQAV
T1 sequence (P03951 19-387 partner limits assumed): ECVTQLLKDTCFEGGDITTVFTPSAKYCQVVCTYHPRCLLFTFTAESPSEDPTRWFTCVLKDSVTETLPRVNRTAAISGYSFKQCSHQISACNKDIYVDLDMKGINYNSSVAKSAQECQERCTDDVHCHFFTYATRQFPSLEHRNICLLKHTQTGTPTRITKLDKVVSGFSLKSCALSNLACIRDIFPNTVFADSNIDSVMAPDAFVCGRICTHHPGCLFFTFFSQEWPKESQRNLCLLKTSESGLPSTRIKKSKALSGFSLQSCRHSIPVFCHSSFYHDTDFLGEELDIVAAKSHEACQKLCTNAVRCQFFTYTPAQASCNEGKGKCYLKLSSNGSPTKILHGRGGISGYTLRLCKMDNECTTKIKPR

IC50 [1]: 5.4 nM | concentration at 8 h ([2]; male, Crj:CD(SD), rat, plasma, oral, rats, 1 mg/kg per os, 8 hours after administration, read-out: Plasma concentration C8h): 2500 nM | AUC ([2]; rat, plasma, po, fasted male Crj:CD(SD) rats, 1 mg/kg per os): 45 µM·h | APTT × 2 maintaining time ([2]; rats, 1 mg/kg orally, period when plasma concentration exceeded APTT×2): >8 h | C8h/APTT × 2 ([2]; rats, 1 mg/kg per os, C8h divided by APTT×2): 1.4
SMILES: N#Cc1cn(-c2ccc(Cl)cc2-c2cc3n(c(=O)c2)[C@H](c2nc(F)c(-c4ccc(N)cc4)[nH]2)CC3)nn1 [Example 4 (10), 1-(2-{(3S)-3-[5-(4-aminophenyl)-4-fluoro-1H-imidazol-2-yl]-5-oxo-1,2,3,5-tetrahydro-7-indolizinyl}-4-chlorophenyl)-1H-1,2,3-triazole-4-carbonitrile]
APTT × (standard human plasma): 1.8 µM
